Reference: US8394797B2, “Substituted pyrazole sigma receptor antagonists” (Laboratorios Del Dr. Esteve, S.A., priority 2004, dated 2013)
Where a name gives a salt, the structure may show the parent alone. Read-outs that look alike come from different tables or passages of the source.

Key:
[1] = molecular target: T1, σ1-receptor (Cavia porcellus, UniProt Q60492); experiment: Sigma-1 receptor binding, [3H](+)-pentazocine, brain membranes; parameters: species or system guinea pig; details: for inhibition at 1 µM: 2.5 h, read-out: binding sigma-1 (*) % of radioactively labeled compound replaced by the tested compound
T1 construct: guinea pig brains were homogenized; from tissue; host or cells: guinea pig brain membranes
T1 sequence (Q60492 whole entry): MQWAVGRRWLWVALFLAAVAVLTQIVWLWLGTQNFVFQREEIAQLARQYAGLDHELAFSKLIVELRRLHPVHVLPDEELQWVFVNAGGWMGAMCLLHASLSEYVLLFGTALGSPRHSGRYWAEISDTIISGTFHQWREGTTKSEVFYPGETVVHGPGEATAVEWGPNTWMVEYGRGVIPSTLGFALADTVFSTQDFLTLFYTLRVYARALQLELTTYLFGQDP

[2] = molecular target: T2, σ2-receptor (Mus musculus, UniProt Q8VD00); experiment: Sigma-2 receptor binding, [3H]-DTG, brains from sigma-1 knockout mice; details: for inhibition at 1 µM: 2 h, tested compound at 10^-6 M, [3H]-DTG 3 nM, read-out: binding sigma-2 (*) % of radioactively labeled compound replaced by the tested compound; for Ki: [3H]-DTG, sigma-1 knockout mouse brain
T2 construct: brains from sigma receptor type I (sigma-1) knockout mice were homogenized; from tissue; host or cells: brain membranes of sigma-1 knockout mice
T2 sequence (Q8VD00 1-176): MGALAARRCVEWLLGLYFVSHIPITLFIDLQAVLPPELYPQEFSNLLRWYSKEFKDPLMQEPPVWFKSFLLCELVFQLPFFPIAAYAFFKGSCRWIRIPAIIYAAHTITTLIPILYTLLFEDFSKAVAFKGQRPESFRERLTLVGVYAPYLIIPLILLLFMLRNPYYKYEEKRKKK
Experimental: In brief, brains from sigma receptor type I (sigma-1) knockout mice were homogenized in a volume of 10 mL/g tissue net weight of ice-cold 10 mM Tris-HCl, pH 7.4, containing 320 mM sucrose (Tris-sucrose buffer) with a Potter-Elvehjem homogenizer (10 strokes at 500 r.p.m.) The homogenates were then centrifuged at 1000 g for 10 min at 4° C., and the supernatants were saved. The pellets were resuspended by vortexing in 2 mL/g ice-cold Tris-sucrose buffer and centrifuged again at 1000 g for 10 min. The combined 1000 g supernatants were centrifuged at 31000 g for 15 min at 4° C. The pellets were resuspended by vortexing in 3 mL/g 10 mM Tris-HCl, pH 7.4, and the suspension was kept at 25° C. for 15 min.
The assay tubes contained 10 μL of [^3H]-DTG (final concentration of 3 nM), 400 μL of the tissue suspension (5.3 mL/g in 50 mM Tris-HCl, pH 8.0) to a final assay volume of 0.5 mL. Non-specific binding was defined by addition of a final concentration of 1 μM haloperidol. […] Filters were washed with three times with 5 mL volumes of cold Tris-HCl buffer (10 mM, pH 8.0). Following addition of scintillation cocktail samples were allowed to equilibrate overnight.

[3] = tested compound at 10^-6 M, [3H](+)-pentazocine 0.5 nM
[4] = [3H](+)-pentazocine, guinea pig brain membranes, read-out: binding sigma-1 Ki

Row | inhibition at 1 µM [1, 3] | Ki [1, 4] | inhibition at 1 µM [2] | Ki [2] | SMILES | melting point | Ki [1] | inhibition at 1 µM [1]
1 | 94% | 37.2 nM | 39% |  | C(/CN1CCOCC1)=C1/CCCc2c1cnn2-c1ccccc1 [Example 5, (E)-4,5,6,7-tetrahydro-4-(2-(morpholin-4-yl)ethylidene)-1-phenyl-1H-indazole] | 114 to 116 °C |  | 
2 | 100% | 6.1 nM | 70.2% |  | c1ccc(CN2CCN(CCC3CCCc4c3cnn4-c3ccccc3)CC2)cc1 (stereo not shown) [Example 10, 4-(2-(4-benzylpiperazin-1-yl)ethyl)-4,5,6,7-tetrahydro-1-phenyl-1H-indazole] | 98 to 101 °C |  | 
3 | 100% | 2.5 nM | 83.8% | 186 nM | C(/CN1CCC(c2ccccc2)CC1)=C1/CCCc2c1cnn2-c1ccccc1 [Example 17, (E)-4,5,6,7-tetrahydro-1-phenyl-4-(2-(4-phenylpiperidin-1-yl)ethylidene)-1H-indazole] |  |  | 
4 | 100% | 1.1 nM | 103% | 49.5 nM | C(/CN1CCC(c2ccccc2)C1)=C1/CCCc2c1cnn2-c1ccccc1 (stereo not shown) [Example 24, (E)-4,5,6,7-tetrahydro-1-phenyl-4-(2-(3-phenylpyrrolidin-1-yl)ethylidene)-1H-indazole] |  |  | 
5 | 99.6% | 7.5 nM | 77% |  | C(/CN1CCCCC1)=C1/CCCc2c1cnn2-c1ccccc1 [Example 27, (E)-4,5,6,7-tetrahydro-1-phenyl-4-(2-(piperidin-1-yl)ethylidene)-1H-indazole] |  |  | 
6 | 101% | 3.5 nM | 97.3% |  | c1ccc(-n2ncc3c2CCC3CCN2CCCC2)cc1 (stereo not shown) [Example 40, 1,4,5,6-tetrahydro-1-phenyl-4-(2-(pyrrolidin-1-yl)ethyl)cyclopenta[c]pyrazole oxalate] |  |  | 
7 | 106% | 3.9 nM | 104% |  | CN(CCC1CCc2c1cnn2-c1ccccc1)Cc1ccccc1 (stereo not shown) [Example 52, N-benzyl-2-(1,4,5,6-tetrahydro-1-phenylcyclopenta[c]pyrazol-4-yl)-N-methylethanamine] |  |  | 
8 | 105% | 8.7 nM | 100% |  | CN(CCC1CCCc2c1cnn2-c1ccccc1)Cc1ccccc1 (stereo not shown) [Example 54, N-benzyl-2-(4,5,6,7-tetrahydro-1-phenyl-1H-indazol-4-yl)-N-methylethanamine] |  |  | 
9 | 100% | 16.2 nM | 108% | 14.4 nM | Fc1ccc(-n2ncc3c2CCCC3CCN2Cc3ccccc3C2)cc1 (stereo not shown) [Example 70, 1-(4-fluorophenyl)-4,5,6,7-tetrahydro-4-(2-(isoindolin-2-yl)ethyl)-1H-indazole] |  |  | 

Continued, compound first:

Row | SMILES | inhibition at 1 µM [1, 3] | Ki [1, 4] | inhibition at 1 µM [2] | Ki [2] | melting point | Ki [1] | inhibition at 1 µM [1]
10 | C(/CN1CCc2ccccc2C1)=C1/CCCc2c1cnn2-c1ccccc1.O=C(O)C(=O)O |  |  |  |  | 217 to 218 °C |  | 
11 | C(/CN1CCC(c2ccccc2)C1)=C1/CCCc2c1cnn2-c1ccccc1.O=C(O)C(=O)O (stereo not shown) |  |  |  |  | 178 to 181 °C |  | 
12 | C(/CN1Cc2ccccc2C1)=C1/CCCc2c1cnn2-c1ccccc1 |  |  |  |  | 130 to 131 °C |  | 
13 | O=C(O)C(=O)O.c1ccc(N2CCN(CCC3CCCc4c3cnn4-c3ccccc3)CC2)cc1 (stereo not shown) |  |  |  |  | 177 to 180 °C |  | 
14 | O=C(O)C(=O)O.c1ccc(CN2CCN(CCC3CCc4c3cnn4-c3ccccc3)CC2)cc1 (stereo not shown) |  |  |  |  | 215 to 218 °C |  | 
15 | Cn1ncc2c1CCCC2CCN1CCOCC1.O=C(O)C(=O)O (stereo not shown) |  |  |  |  | 137.7 to 139.3 °C |  | 
16 | Fc1ccc(-n2ncc3c2CCCC3CCN2Cc3ccccc3C2)cc1.O=C(O)C(=O)O (stereo not shown) |  |  |  |  | 176 to 179 °C |  | 
17 | c1ccc(-n2ncc3c2CCCC3CCN2CCOCC2)cc1 (stereo not shown) (as salt: oxalate) [Example 2, 4,5,6,7-tetrahydro-4-(2-(morpholin-4-yl)ethyl)-1-phenyl-1H-indazole oxalate] |  |  |  |  | 150 to 151 °C |  | 
18 | Clc1ccc(-n2ncc3c2CCCC3CCN2CCC(c3ccccc3)CC2)cc1Cl (stereo not shown) (as salt: oxalate) [Example 4, 1-(3,4-dichlorophenyl)-4,5,6,7-tetrahydro-4-(2-(4-phenylpiperidin-1-yl)ethyl)-1H-indazole oxalate] |  |  |  |  | 133 to 134 °C |  | 
19 | O=C(O)C(=O)O.c1ccc(-n2ncc3c2CCCC3CCN2CCOCC2)cc1 (single isomer, unassigned; (+)) [Example 74, (+)-4,5,6,7-tetrahydro-4-(2-(morpholin-4-yl)ethyl)-1-phenyl-1H-indazole oxalate] |  |  |  |  | 175 to 176 °C |  | 
20 | Clc1ccc(-n2ncc3c2CCCC3CCN2CCC(c3ccccc3)CC2)cc1Cl (stereo not shown) [Example 4, 1-(3,4-dichlorophenyl)-4,5,6,7-tetrahydro-4-(2-(4-phenylpiperidin-1-yl)ethyl)-1H-indazole oxalate] | 100% | 10.6 nM | 98% | 316 nM |  |  | 
21 | Clc1ccc(-n2ncc3c2CCCC3CCN2CCOCC2)cc1Cl.O=C(O)C(=O)O (stereo not shown) [Example 7, 1-(3,4-dichlorophenyl)-4,5,6,7-tetrahydro-4-(2-(morpholin-4-yl)ethyl)-1H-indazole oxalate] | 100% | 4.3 nM | 98.1% |  | 148 to 149.8 °C |  | 
22 | O=C(O)C(=O)O.c1ccc(C2CCN(CCC3CCCc4c3cnn4-c3ccccc3)CC2)cc1 (stereo not shown) [Example 9, 4,5,6,7-tetrahydro-1-phenyl-4-(2-(4-phenylpiperidin-1-yl)ethyl)-1H-indazole oxalate] | 101% | 1.5 nM | 107% | 37.5 nM | 124 to 125 °C |  | 
23 | O=C(O)C(=O)O.c1ccc(-n2ncc3c2CCCC3CCN2CCC3(CC2)OCc2ccccc23)cc1 (stereo not shown) [Example 12, 4,5,6,7-tetrahydro-1-phenyl-4-(2-[spiro[isobenzofuran-1(3H), 4′-piperidin]-1′-yl]ethyl)-1H-indazole oxalate] |  |  | 98.8% | 37 nM | 133 to 135 °C | 0.9 nM | 100%
24 | O=C(O)C(=O)O.c1ccc(-n2ncc3c2CCCC3CCN2CCCCC2)cc1 (stereo not shown) [Example 14, 4,5,6,7-tetrahydro-1-phenyl-4-(2-(piperidin-1-yl)ethyl)-1H-indazole oxalate] | 99.8% | 2.3 nM | 89% |  | 185 to 188 °C |  | 
25 | C(/CN1CCCCCC1)=C1/CCCc2c1cnn2-c1ccccc1.O=C(O)C(=O)O [Example 16, (E)-4-(2-(azepan-1-yl)ethylidene)-4,5,6,7-tetrahydro-1-phenyl-1H-indazole oxalate] | 99.9% | 1.5 nM | 93% |  | 171 to 173 °C |  | 
26 | c1ccc(-n2ncc3c2CCC3CCN2CCCCC2)cc1 (stereo not shown) [Example 37, 1,4,5,6-tetrahydro-1-phenyl-4-(2-(piperidin-1-yl)ethyl)cyclopenta[c]pyrazole] | 102% | 1.1 nM | 79.9% |  |  |  | 
27 | Fc1ccc(-n2ncc3c2CCCC3CCN2CCOCC2)cc1.O=C(O)C(=O)O (stereo not shown) [Example 66, 1-(4-fluorophenyl)-4,5,6,7-tetrahydro-4-(2-(morpholin-4-yl)ethyl)-1H-indazole oxalate] | 98.1% | 2.4 nM |  |  | 148 to 151 °C |  | 
28 | CN(CCC1CCCc2c1cnn2-c1ccc(F)cc1)Cc1ccccc1 (stereo not shown) [Example 69, N-benzyl-2-(1-(4-fluorophenyl)-4,5,6,7-tetrahydro-1H-indazol-4-yl)-N-methylethanamine] | 103% | 2.6 nM | 99.3% | 21.7 nM |  |  | 
29 | Fc1ccc(-n2ncc3c2CCCC3CCN2CCC(c3ccccc3)CC2)cc1 (stereo not shown) [Example 72, 1-(4-fluorophenyl)-4,5,6,7-tetrahydro-4-(2-(4-phenylpiperidin-1-yl)ethyl)-1H-indazole] |  |  |  |  | 93 to 94.5 °C |  | 
30 | CC1CCN(CCC2CCCc3c2cnn3-c2ccccc2)CC1 (stereo not shown) [Example 94, 4,5,6,7-Tetrahydro-4-(2-(4-methylpiperidin-1-yl)ethyl)-1-phenyl-1H-indazole oxalate] | 103% | 1.9 nM |  |  |  |  | 
31 | c1ccc(-n2ncc3c2CCC3CCN2CCSCC2)cc1 (stereo not shown) [Example 97, 1,4,5,6-tetrahydro-1-phenyl-4-[2-(thiomorpholin-4-yl)ethyl]cyclopenta[c]pyrazole oxalate] | 102% | 0.62 nM |  |  |  |  | 
32 | CC1CCN(CCC2CCc3c2cnn3-c2ccccc2)CC1 (stereo not shown) [Example 99, 1,4,5,6-tetrahydro-4-(2-(4-methylpiperidin-1-yl)ethyl)-1-phenylcyclopenta[c]pyrazole oxalate] | 102% | 1.5 nM |  |  |  |  | 
